#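 Cells were grown in 96-well plates and exposed to each compound for 48 hours at five concentrations; endpoints were interpolated linearly between bracketing concentrations, or set to the highest concentration if not reached. Abbreviation: GI50, concentration required for 50% inhibition of growth. TGI: total growth inhibition.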
# Key:
# Experiment in all cases: growth of human tumour cells (NCI), 48 h
# SF-268 CNS = test system: SF-268 CNS
# SK-OV-3 ovarian = test system: SK-OV-3 ovarian
# OVCAR-5 ovarian = test system: OVCAR-5 ovarian
# MDA-MB-435 = test system: MDA-MB-435
# CCRF-CEM leukemia = test system: CCRF-CEM leukemia
# UACC-257 melanoma = test system: UACC-257 melanoma
# MDA-MB-231 breast = test system: MDA-MB-231 breast
# HOP-62 NSCLC = test system: HOP-62 NSCLC
# TK-10 renal = test system: TK-10 renal
# COLO 205 colon = test system: COLO 205 colon
# HOP-92 NSCLC = test system: HOP-92 NSCLC
# SNB-75 CNS = test system: SNB-75 CNS
# LOX IMVI melanoma = test system: LOX IMVI melanoma
# UO-31 renal = test system: UO-31 renal
# K-562 leukemia = test system: K-562 leukemia
# MOLT-4 leukemia = test system: MOLT-4 leukemia
# HCC-2998 colon = test system: HCC-2998 colon
# HS 578T breast = test system: HS 578T breast
# SF-539 CNS = test system: SF-539 CNS
# NCI-H460 lung = test system: NCI-H460 lung
# MALME-3M melanoma = test system: MALME-3M melanoma
# SK-MEL-5 melanoma = test system: SK-MEL-5 melanoma
# IGROV1 ovarian = test system: IGROV1 ovarian
# HCT-15 colon = test system: HCT-15 colon
# A498 renal = test system: A498 renal
# MCF7 breast = test system: MCF7 breast
# HT29 colon = test system: HT29 colon
# HL-60(TB) leukemia = test system: HL-60(TB) leukemia
# M14 melanoma = test system: M14 melanoma
# HCT-116 colon = test system: HCT-116 colon
# 786-0 renal = test system: 786-0 renal
# SW-620 colon = test system: SW-620 colon
# SN12C renal = test system: SN12C renal
# U251 CNS = test system: U251 CNS
# NCI-H226 lung = test system: NCI-H226 lung
# ACHN renal = test system: ACHN renal
# NCI-H522 lung = test system: NCI-H522 lung
# BT-549 breast = test system: BT-549 breast
# A549 NSCLC = test system: A549 NSCLC
# EKVX NSCLC = test system: EKVX NSCLC
# T-47D breast = test system: T-47D breast
# SK-MEL-2 melanoma = test system: SK-MEL-2 melanoma
# CAKI-1 renal = test system: CAKI-1 renal
# RXF 393 renal = test system: RXF 393 renal
# DU-145 prostate = test system: DU-145 prostate
# NCI/ADR-RES ovarian = test system: NCI/ADR-RES ovarian
# OVCAR-4 ovarian = test system: OVCAR-4 ovarian
# OVCAR-8 ovarian = test system: OVCAR-8 ovarian
# UACC-62 melanoma = test system: UACC-62 melanoma
# SR leukemia = test system: SR leukemia
# OVCAR-3 ovarian = test system: OVCAR-3 ovarian
# PC-3 prostate = test system: PC-3 prostate
# RPMI-8226 leukemia = test system: RPMI-8226 leukemia
# SNB-19 CNS = test system: SNB-19 CNS
# SK-MEL-28 melanoma = test system: SK-MEL-28 melanoma
smiles,measurement,setting,value
COc1ccc(NC(=O)[C@H](C)NC(=O)OC(C)(C)C)cc1C(=O)Nc1cccc(-c2cc(=O)c3c(OC)c(OC)c(OC)cc3o2)c1,GI50,SF-268 CNS,3.41 µM
same,TGI,SF-268 CNS,> 100 µM
same,GI50,SK-OV-3 ovarian,2.3 µM
same,TGI,SK-OV-3 ovarian,4.87 µM
same,GI50,OVCAR-5 ovarian,2.01 µM
same,TGI,OVCAR-5 ovarian,5.23 µM
same,GI50,MDA-MB-435,2 µM
same,TGI,MDA-MB-435,4.11 µM
same,GI50,CCRF-CEM leukemia,1.86 µM
same,TGI,CCRF-CEM leukemia,8.26 µM
same,GI50,UACC-257 melanoma,1.99 µM
same,TGI,UACC-257 melanoma,3.8 µM
same,GI50,MDA-MB-231 breast,1.83 µM
same,TGI,MDA-MB-231 breast,3.99 µM
same,GI50,HOP-62 NSCLC,2.14 µM
same,TGI,HOP-62 NSCLC,5.18 µM
same,GI50,TK-10 renal,2.04 µM
same,TGI,TK-10 renal,7.78 µM
same,GI50,COLO 205 colon,1.87 µM
same,TGI,COLO 205 colon,3.59 µM
same,GI50,HOP-92 NSCLC,0.37 µM
same,TGI,HOP-92 NSCLC,4.14 µM
same,GI50,SNB-75 CNS,1.46 µM
same,TGI,SNB-75 CNS,3.2 µM
same,GI50,LOX IMVI melanoma,1.59 µM
same,TGI,LOX IMVI melanoma,3.11 µM
same,GI50,UO-31 renal,2.4 µM
same,TGI,UO-31 renal,> 100 µM
same,GI50,K-562 leukemia,2.55 µM
same,TGI,K-562 leukemia,> 100 µM
same,GI50,MOLT-4 leukemia,1.71 µM
same,TGI,MOLT-4 leukemia,7.9 µM
same,GI50,HCC-2998 colon,1.76 µM
same,TGI,HCC-2998 colon,3.21 µM
same,GI50,HS 578T breast,2.64 µM
same,TGI,HS 578T breast,9.44 µM
same,GI50,SF-539 CNS,1.88 µM
same,TGI,SF-539 CNS,4.12 µM
same,GI50,NCI-H460 lung,2.31 µM
same,TGI,NCI-H460 lung,5.24 µM
same,GI50,MALME-3M melanoma,2.48 µM
same,TGI,MALME-3M melanoma,6.73 µM
same,GI50,SK-MEL-5 melanoma,1.47 µM
same,TGI,SK-MEL-5 melanoma,2.99 µM
same,GI50,IGROV1 ovarian,3.25 µM
same,TGI,IGROV1 ovarian,> 100 µM
same,GI50,HCT-15 colon,2.38 µM
same,TGI,HCT-15 colon,7.27 µM
same,GI50,A498 renal,3.35 µM
same,TGI,A498 renal,32.7 µM
same,GI50,MCF7 breast,2.72 µM
same,TGI,MCF7 breast,9.52 µM
same,GI50,HT29 colon,1.88 µM
same,TGI,HT29 colon,3.87 µM
same,GI50,HL-60(TB) leukemia,2.07 µM
same,TGI,HL-60(TB) leukemia,4.96 µM
same,GI50,M14 melanoma,2.98 µM
same,TGI,M14 melanoma,7.94 µM
same,GI50,HCT-116 colon,2.05 µM
same,TGI,HCT-116 colon,4.63 µM
same,GI50,786-0 renal,3.03 µM
same,TGI,786-0 renal,> 100 µM
same,GI50,SW-620 colon,2.93 µM
same,TGI,SW-620 colon,8.64 µM
same,GI50,SN12C renal,2.38 µM
same,TGI,SN12C renal,7.34 µM
same,GI50,U251 CNS,2.46 µM
same,TGI,U251 CNS,6.61 µM
same,GI50,NCI-H226 lung,1.8 µM
same,TGI,NCI-H226 lung,3.84 µM
same,GI50,ACHN renal,3.34 µM
same,TGI,ACHN renal,> 100 µM
same,GI50,NCI-H522 lung,1.72 µM
same,TGI,NCI-H522 lung,3.99 µM
same,GI50,BT-549 breast,1.52 µM
same,TGI,BT-549 breast,2.99 µM
same,GI50,A549 NSCLC,2.94 µM
same,TGI,A549 NSCLC,10.9 µM
same,GI50,EKVX NSCLC,3.17 µM
same,TGI,EKVX NSCLC,> 100 µM
same,GI50,T-47D breast,1.7 µM
same,TGI,T-47D breast,5.97 µM
same,GI50,SK-MEL-2 melanoma,1.8 µM
same,TGI,SK-MEL-2 melanoma,4.29 µM
same,GI50,CAKI-1 renal,3.06 µM
same,TGI,CAKI-1 renal,> 100 µM
same,GI50,RXF 393 renal,1.89 µM
same,TGI,RXF 393 renal,3.37 µM
same,GI50,DU-145 prostate,3.86 µM
same,TGI,DU-145 prostate,> 100 µM
same,GI50,NCI/ADR-RES ovarian,8.01 µM
same,TGI,NCI/ADR-RES ovarian,> 100 µM
same,GI50,OVCAR-4 ovarian,3.13 µM
same,TGI,OVCAR-4 ovarian,> 100 µM
same,GI50,OVCAR-8 ovarian,1.7 µM
same,TGI,OVCAR-8 ovarian,5.47 µM
same,GI50,UACC-62 melanoma,1.7 µM
same,TGI,UACC-62 melanoma,3.33 µM
same,GI50,SR leukemia,2.37 µM
same,TGI,SR leukemia,> 100 µM
same,GI50,OVCAR-3 ovarian,2.13 µM
same,TGI,OVCAR-3 ovarian,4.43 µM
same,GI50,PC-3 prostate,2.95 µM
same,TGI,PC-3 prostate,> 100 µM
same,GI50,RPMI-8226 leukemia,1.55 µM
same,TGI,RPMI-8226 leukemia,5.07 µM
same,GI50,SNB-19 CNS,3.56 µM
same,TGI,SNB-19 CNS,> 100 µM
same,GI50,SK-MEL-28 melanoma,2.5 µM
same,TGI,SK-MEL-28 melanoma,5.72 µM

# Source: PubChem BioAssay (NCI)
